Test results reported in patent US20240300932A1, “N-PHENYLIMINE DERIVATIVE AND PREPARATION METHOD AND USE THEREOF” (Guizhou University, priority 2023, published 2024).
Blank lines part the entries; values can stand above or below the compound they belong to.

What was measured:
Amaranthus retroflexus = experiment: Post-emergence herbicidal activity test (stem and leaf spray, pot culture); assay type: in vivo; details: dosage 10 g/mu, 3 weeks after spraying
In short: (§1)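 Foliar spray, 2–3-leaf stage, 10/5/2.5 g/mu; acetone/Tween 80 + methyl oleate 1.5 L/ha. Greenhouse 3 wk, 20–30 °C. Score: fresh-wt control, grade 5 ≥85% … grade 0 <5%.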

Abutilon theophrasti = experiment: as above; assay type: in vivo; details: dosage 10 g/mu, 3 weeks after spraying
In short: as §1

Echinochloa crusgalli = experiment: as above; assay type: in vivo; details: dosage 10 g/mu, 3 weeks after spraying
In short: as §1

Portulaca oleracea = experiment: as above; assay type: in vivo; details: dosage 10 g/mu, 3 weeks after spraying
In short: as §1

Setaria viridis = experiment: as above; assay type: in vivo; details: dosage 10 g/mu, 3 weeks after spraying
In short: as §1

Trifoliumre pensL. = experiment: Post-emergence herbicidal activity test (stem and leaf spray, pot culture); assay type: in vivo; details: dosage 10 g/mu, 3 weeks after spraying
In short: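 Rates of 10, 5 and 2.5 g/mu were applied in a single spray-tower treatment to 2–3-leaf plants, thinned to 10 per pot. Formulation: acetone solution, Tween 80, 1.5 L/ha methyl oleate synergist. Weed response assessed after 3 further greenhouse weeks; mean of three experiments.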

broad-leaf weeds = experiment: Post-emergence herbicidal activity test, broad-leaf weeds as a group; assay type: in vivo; details: 10 a.i.g/mu
Procedure: The weeds were cultivated in a 180 mm×140 mm plastic nutrient pot by a pot-culture method, placed in an enamel tray, and the plastic nutrient pots were filled with surface soil (⅘ of a depth) collected from a farmland and air-dried and sieved, and a soil humidity was controlled at 20% in the initial stage. Weed seeds with plump and uniform grains were selected, soaked in warm water at 25° C. for 6 h, and germinated in a biochemical incubator (dark) at 28° C. The freshly exposed weed seeds were evenly placed on the soil surface, and then covered with 0.5 cm to 1 cm of soil according to the size of the seeds. The weeds are cultivated in a controlled sunlight greenhouse at 20° C. to 30° C., under natural light, and a relative humidity of 57% to 72%. […]
2 weeks after sowing, the test plants were treated at the 2- to 3-leaf stage: the compounds of the present disclosure for testing were dissolved in acetone separately, and added with Tween 80, an emulsifiable oil of 1.5 liters/ha methyl oleate was added as a synergist, and an obtained mixture was diluted with certain water to a certain concentration solution. […] After spraying, the weeds were cultivated in the greenhouse for 3 weeks, and the experimental effects on the weeds were counted. […]

melting point: 138 to 141 °C
SMILES: O=C(COC(=O)c1cc(N2C(=O)C3=C(CCCC3)C2=O)c(F)cc1Cl)c1ccc(Cl)cc1 [Compound E1, 2-(4-chlorophenyl)-2-oxoethyl-2-chloro-5-(1,3-dioxo-1,3,4,5,6,7-hexahydro-2H-isoindole-2-yl)-4-fluorobenzoate]
Post-emergence herbicidal activity, A. retroflexus (grade) (Amaranthus retroflexus): 5 (Grade 5: the growth control rate is greater than or equal to 85%)
Post-emergence herbicidal activity, A. theophrasti (grade) (Abutilon theophrasti): 5 (Grade 5: the growth control rate is greater than or equal to 85%)
Post-emergence herbicidal activity, E. crusgalli (grade) (Echinochloa crusgalli): 3 (Grade 3: the growth control rate is greater than or equal to 40% and less than 60%)
Post-emergence herbicidal activity, P. oleracea (grade) (Portulaca oleracea): 5 (Grade 5: the growth control rate is greater than or equal to 85%)
Post-emergence herbicidal activity, S. viridis (grade) (Setaria viridis): 4 (Grade 4: the growth control rate is greater than or equal to 60% and less than 85%)
Post-emergence herbicidal activity, Trifoliumre pensL. (grade) (Trifoliumre pensL.): 5 (Grade 5: the growth control rate is greater than or equal to 85%)

melting point: 133 to 136 °C
SMILES: O=C(COC(=O)c1cc(N2C(=O)C3=C(CCCC3)C2=O)c(F)cc1Cl)c1ccccc1 [Compound E2, 2-oxo-2-phenylethyl-2-chloro-5-(1,3-dioxo-1,3,4,5,6,7-hexahydro-2H-isoindole-2-yl)-4-fluorobenzoate]
Post-emergence herbicidal activity, A. retroflexus (grade) (Amaranthus retroflexus): 5 (Grade 5: the growth control rate is greater than or equal to 85%)
Post-emergence herbicidal activity, A. theophrasti (grade) (Abutilon theophrasti): 5 (Grade 5: the growth control rate is greater than or equal to 85%)
Post-emergence herbicidal activity, E. crusgalli (grade) (Echinochloa crusgalli): 3 (Grade 3: the growth control rate is greater than or equal to 40% and less than 60%)
Post-emergence herbicidal activity, P. oleracea (grade) (Portulaca oleracea): 5 (Grade 5: the growth control rate is greater than or equal to 85%)
Post-emergence herbicidal activity, S. viridis (grade) (Setaria viridis): 4 (Grade 4: the growth control rate is greater than or equal to 60% and less than 85%)
Post-emergence herbicidal activity, Trifoliumre pensL. (grade) (Trifoliumre pensL.): 4 (Grade 4: the growth control rate is greater than or equal to 60% and less than 85%)

SMILES: C#CCN1C(=O)COc2cc(F)c(N3C(=O)C4=C(CCCC4)C3=O)cc21 [flumioxazin]
control effect against broad-leaf weeds (broad-leaf weeds): 100%
